# Assay results taken from US11104670B2, “4-pyrimidin-5-ylmethyl-morpholine derivatives and the use thereof as medicament” (Boehringer Ingelheim International GmbH, priority 2018, dated 2021).
# Key:
# [1] = Metabolic stability in pooled human liver microsomes; format: in vitro ADME; conditions: pH 7.6, 1 μM compound, 1 mg/mL microsomal protein, 37° C., NADPH, read-out: Half-life - t½ human liver microsomes
# Description: Stability in human liver microsomes refers to the susceptibility of compounds to biotransformation in the context of selecting and/or designing drugs with favorable pharmacokinetic properties. The primary site of metabolism for many drugs is the liver. Human liver microsomes contain the cytochrome P450s (CYPs), and thus represent a model system for studying drug metabolism in vitro. Enhanced stability in human liver microsomes is associated with several advantages, including increased bioavailability and adequate half-life, which can enable lower and less frequent dosing of patients. Thus, enhanced stability in human liver microsomes is a favorable characteristic for compounds that are to be used for drugs.
# The metabolic degradation of the test compound was assayed at 37° C. with pooled human liver microsomes. The final incubation volume of 60 μl per time point contains TRIS buffer pH 7.6 at room temperature (0.1 M), magnesium chloride (5 mM aqueous solution), microsomal protein (1 mg/mL for human) and the test compound at a final concentration of 1 μM. Following a short preincubation period at 37° C., the reactions were initiated by addition of betanicotinamide adenine dinucleotide phosphate, reduced form (NADPH, 1 mM), and terminated by transferring an aliquot into acetonitril after different time points. After centrifugation (10000 g, 5 min), an aliquot of the supernatant was assayed by HPLC-MS/MS as described above for the MDCK assay P-gp for the amount of parent compound. The half-life was determined by the slope of the semi-logarithmic plot of the concentration-time profile.
# NMDA NR1/NR2B receptor = NMDA NR1/NR2B receptor (Homo sapiens (Human), UniProt Q13224); experiment: NMDA NR1/NR2B FLIPR calcium assay in HEK293 cells; format: cell-based; conditions: glycine/glutamate-induced calcium, read-out: IC50, in vitro NR2B affinity in the FLIPR assay
# Chain of NMDA NR1/NR2B receptor (Q13224 27-1484, other chains not shown): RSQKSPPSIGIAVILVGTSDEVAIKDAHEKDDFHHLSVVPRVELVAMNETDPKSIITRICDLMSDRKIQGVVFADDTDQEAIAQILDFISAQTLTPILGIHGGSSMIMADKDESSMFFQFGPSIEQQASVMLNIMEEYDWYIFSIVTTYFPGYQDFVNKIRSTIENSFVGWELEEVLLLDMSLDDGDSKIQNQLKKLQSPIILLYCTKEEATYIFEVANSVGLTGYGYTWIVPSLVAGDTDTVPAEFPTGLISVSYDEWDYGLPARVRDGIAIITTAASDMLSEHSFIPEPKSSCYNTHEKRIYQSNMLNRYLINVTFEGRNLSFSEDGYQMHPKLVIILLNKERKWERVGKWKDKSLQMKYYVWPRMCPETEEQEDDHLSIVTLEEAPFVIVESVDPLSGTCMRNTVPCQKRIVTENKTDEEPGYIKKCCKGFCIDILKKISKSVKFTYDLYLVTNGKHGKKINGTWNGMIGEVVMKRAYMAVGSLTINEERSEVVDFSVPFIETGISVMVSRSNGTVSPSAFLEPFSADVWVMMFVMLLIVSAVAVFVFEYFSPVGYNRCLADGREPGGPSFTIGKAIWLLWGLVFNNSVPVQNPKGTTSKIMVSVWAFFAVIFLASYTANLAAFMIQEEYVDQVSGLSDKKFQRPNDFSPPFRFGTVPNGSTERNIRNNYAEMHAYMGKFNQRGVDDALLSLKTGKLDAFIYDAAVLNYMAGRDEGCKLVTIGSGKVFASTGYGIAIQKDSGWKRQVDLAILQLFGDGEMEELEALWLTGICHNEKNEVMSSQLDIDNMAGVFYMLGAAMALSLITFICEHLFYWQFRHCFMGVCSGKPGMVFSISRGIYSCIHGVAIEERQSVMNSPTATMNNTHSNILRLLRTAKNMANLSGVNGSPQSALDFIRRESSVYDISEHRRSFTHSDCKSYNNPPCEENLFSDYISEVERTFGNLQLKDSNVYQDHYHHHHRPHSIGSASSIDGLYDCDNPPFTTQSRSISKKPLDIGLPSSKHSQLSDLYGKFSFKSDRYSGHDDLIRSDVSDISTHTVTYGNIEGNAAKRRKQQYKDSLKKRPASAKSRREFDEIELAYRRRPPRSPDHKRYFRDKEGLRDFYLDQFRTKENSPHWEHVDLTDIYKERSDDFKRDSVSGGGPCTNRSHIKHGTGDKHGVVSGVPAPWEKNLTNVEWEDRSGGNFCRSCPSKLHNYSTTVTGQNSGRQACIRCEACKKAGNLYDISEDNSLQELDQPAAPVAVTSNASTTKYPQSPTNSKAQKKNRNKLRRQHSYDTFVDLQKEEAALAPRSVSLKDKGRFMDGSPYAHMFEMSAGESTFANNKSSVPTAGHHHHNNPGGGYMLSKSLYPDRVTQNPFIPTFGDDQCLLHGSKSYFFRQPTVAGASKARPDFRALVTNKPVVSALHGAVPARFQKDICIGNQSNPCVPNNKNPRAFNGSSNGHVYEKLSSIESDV
# Protocol: A human HEK293 cell line with tetracyclin-inducible expression of NMDA NR1/NR2B receptor was used as a test system for compound efficacy and potency. The cell line was purchased from ChanTest, Catalog #CT6121. Compound activity was determined by measuring the effect of compounds on intracellular calcium concentration induced by glycine/glutamate agonism in a FLIPRtetra system (Molecular Devices).
# The cells were obtained as frozen cells in cryo-vials and stored until use at −150° C. Cells were grown in culture medium (DMEM/F12, 10% FBS, 5 μg/mL Blasticidin, 150 μg/mL Zeozin, 500 μg/mL Geneticin). […] For sub-culturing the cells were detached from flasks by Versene. For the assay, cells were detached, washed twice with induction medium (DMEM/F12 without glutamine, 10% FBS, 2 μg/mL Tetracycline, 2 mM Ketamine) and seeded to 384 well pure coat amine plates (Becton Dickinson, 50000 cells per well in 50 μl) 48 h prior to assay in induction medium.
# The test compounds were dissolved in 100% DMSO at a concentration of 10 mM and in a first step diluted in DMSO to a concentration of 5 mM, followed by serial dilution steps in 100% DMSO. Dilution factor and number of dilution steps may vary according to needs. Typically 8 different concentrations by 1:5 dilutions were prepared in duplicate, further intermediate dilutions (1:37.5) of the substances were carried out with aqueous assay buffer (137 mM NaCl, 4 mM KCl, 1.8 mM CaCl2), 10 mM HEPES, 10 mM Glucose, pH 7.4) resulting in a compound concentration 3 times above the final test concentration and DMSO at 2.7% resulting in 0.9% final DMSO concentration in the assay.
# At the assay day cells were washed 3× with assay buffer (as described above), 10 μL buffer remained in the wells after washing. 10 μL Ca kit loading buffer (AAT Bioquest; prepared from the kit containing the following components: Component A: Fluo-8 NW dissolved in 200 μL DMSO and 20 μl of this solution are mixed with 10 ml buffer prepared out of component B and C, Component B: 10× Pluronic® F127 Plus diluted 1:10 in component C, Component C: HHBS (Hanks with 20 mM Hepes) was added to the cells and the plates were incubated with lid for 60 minutes at room temperature. 20 μl assay buffer containing 60 μM glycine (20 μM final) and 3 μM glutamate (1 μM final) was added to column 1-23, column 24 got assay buffer without glycine/glutamate to serve as negative unstimulated control. Fluorescence (indicating the calcium influx as a result of the NR1/NR2B ion channel activation) was read on the FLIPRtetra device for 60 seconds to monitor the glutamate induced effects. After 2 minutes 20 μL of compound dilution prepared as described above or controls (row 1-22) in assay buffer were carefully added to the wells. […] The average of 2 measurements at 5 minutes and 5 min 10 seconds after compound addition is calculated and further used for IC50 calculations. Each assay microtiter compound dilution plate contained wells (in column 23 or 24) with DMSO controls instead of compound as controls for glycine/glutamate induced fluorescence (high controls) and wells with 1 μM of a reference NR2B NAM as low controls (Compound 22; reference: Layton, Mark E et al, ACS Chemical Neuroscience 2011, 2(7), 352-362).
# The output file of the reader contains the well number and measured average fluorescence units. For data evaluation and calculation, the measurement of the low control was set as 0% control and the measurement of the high control was set as 100% control. The IC50 values were calculated using the standard 4 parameter logistic regression formula. Calculation: [y=(a−d)/(1+(x/c)^b)+d], a=low value, d=high value; x=conc M; c=IC50 M; b=slope.
half-life at 1 µM [1],IC50 (NMDA NR1/NR2B receptor),Structure (SMILES)
> 130 min,550 nM,CNC(=O)[C@@H]1CN(Cc2cnc(Oc3ccccc3Cl)nc2)CCO1 [Example 26]
> 130 min,702 nM,CNC(=O)[C@@H]1CN(Cc2cnc(Oc3ccc(F)cc3C)nc2)CCO1 [Example 21]
> 130 min,133 nM,CNC(=O)[C@@H]1CN(Cc2cnc(Oc3ccc(C)cc3F)nc2)CCO1 [Example 20]
> 130 min,350 nM,CNC(=O)[C@@H]1CN(Cc2cnc(Oc3ccccc3F)nc2)CCO1 [Example 27]
> 130 min,1110 nM,CNC(=O)[C@@H]1CN(Cc2cnc(Oc3ccc(C)cc3C)nc2)CCO1 [Example 22]
> 130 min,98 nM,CNC(=O)[C@@H]1CN(Cc2cnc(Oc3ccc(Cl)cc3F)nc2)CCO1 [Example 24]
> 130 min,500 nM,CNC(=O)[C@@H]1CN(Cc2cnc(Oc3ccc(C)cc3)nc2)CCO1 [Example 28]
> 130 min,547 nM,CNC(=O)[C@@H]1CN(Cc2cnc(Oc3ccc(F)cc3)nc2)CCO1 [Example 32]
> 130 min,216 nM,CNC(=O)[C@@H]1CN(Cc2cnc(Oc3ccc(Cl)cc3)nc2)CCO1 [Example 25]
> 130 min,143 nM,CNC(=O)[C@@H]1CN(Cc2cnc(Oc3ccc(F)cc3F)nc2)CCO1 [Example 23]
